Reference: patent publication US6930088B2, “Conformationally constrained backbone cyclized somatostatin analogs” (Peptor Ltd., priority 1998, dated 2005)
“Also recorded” adds a separate entry of the source.

Experiments:
[1] = In vitro biostability in renal homogenate (HPLC)
Procedure: The assay was based on HPLC determination of peptide degradation as a function of time in renal homogenate at 37° C.

SSTR-3 = target: T1, SSTR-3 (Homo sapiens, UniProt P32745); experiment: Inhibition of 125I-Tyr11-SRIF binding to membrane preparations expressing SSTR-3; settings: read-out: Percent inhibition of SRIF-14 binding
T1 construct: expressed in transfected cells
Procedure: The somatostatin analogs were tested for their potency in inhibition of the binding of ^125I-Tyr^11-SRIF (based on the method described by Raynor et. al., Molecular Pharmacology, 1993, 43, 838-844) to membrane preparations expressing the transmembranal somatostatin receptors (SSTR-1, 2, 3, 4 or 5). The receptor preparations used for these tests were either from the cloned human receptors selectively and stably expressed in Chinese Hamster Ovary (CHO) cells or from cell lines naturally expressing the SSTRs. […] The binding reactions were filtered, the filters were washed and the bound radioactivity was counted in gamma counter. Non specific binding was defined as the radioactivity remaining bound in the presence of 1 μM unlabeled SRIF-14.
(§1) In order to validate positive signals of the binding tests, and to eliminate non-specific signals, samples of irrelevant peptides, such as GnRH, that were synthesized and handled using the same procedures, were tested in the same assays as negative control samples. These samples had no binding activity in any of the assays. Results are shown below in Tables 5 and 6 and FIG. 1.

insulin release = experiment: In-vivo effect on insulin release; parameters: species or system Wistar male rats
Procedure: Insulin stimulation was induced by IV bolus administration of D-glucose to overnight fasted rats.
An in-vivo determination of insulin release as a result of peptide administration was measured in Wistar male rats. […] Time course profiles for […] release under constant experimental conditions were measured.
Male Wistar rats were fasted overnight. Animals were anesthetized with Nembutal (IP, 60 mg/kg). Ten minutes after anesthesia, drugs were administrated S.C. at 0.01-100 microgram/kg dose 30 minutes before stimulation of insulin secretion performed by I.V. administration of 0.5 g/kg of D-glucose, 5 minutes before blood collection from abdominal Vena-cava. Hormone levels wer measured by RIA.

[2] = Metabolic bio-stability against degradation by enzyme mixtures; format: in vitro ADME; settings: in words; renal homogenate, rat liver homogenate and human serum
SSTR-4 = target: T2, SSTR-4 (Homo sapiens, UniProt P31391); experiment: Inhibition of 125I-Tyr11-SRIF binding to membrane preparations expressing SSTR-4; settings: SSTR-R4, read-out: Percent inhibition of SRIF-14 binding
T2 construct: expressed in transfected cells
Procedure: (§2) The somatostatin analogs were tested for their potency in inhibition of the binding of ^125I-Tyr^11-SRIF (based on the method described by Raynor et. al., Molecular Pharmacology, 1993, 43, 838-844) to membrane preparations expressing the transmembranal somatostatin receptors (SSTR-1, 2, 3, 4 or 5). The receptor preparations used for these tests were either from the cloned human receptors selectively and stably expressed in Chinese Hamster Ovary (CHO) cells or from cell lines naturally expressing the SSTRs. Typically, cell membranes were homogenated in Tris buffer in the presence of protease inhibitors and incubated for 30-40 minutes with ^125I-Tyr^11-SRIF with different concentrations of the tested sample. The binding reactions were filtered, the filters were washed and the bound radioactivity was counted in gamma counter. Non specific binding was defined as the radioactivity remaining bound in the presence of 1 μM unlabeled SRIF-14.
as §1

[3] = tested on: growth hormone (GH) release; experiment: In-vivo inhibition of growth hormone release; parameters: species or system Wistar male rats
Procedure: Inhibition of growth hormone (GH) release as a result of peptide administration was measured in Wistar male rats.
Adult male Wistar rats weighing 200-250 g, were maintained on a constant light-dark cycle (light from 8:00 to 20:00 h), temperature (21±3° C.), and relative humidity (55±10%). Laboratory chow and tap water were available ad libitum. On the day of the experiment, rats were anesthetized with Nembutal (IP, 60 mg/kg). Ten minutes after anesthesia, drugs were administered S.C. at 0.01-100 microgram/kg dose. Stimulation of GH was performed by I.V. administration of 0.5 g/kg of L-Arginine through femoral vein. Sampling was carried out following 5 minutes of stimulation, at 15 or 30 minutes after peptide administration. Blood samples were collected form abdominal vena-cava into tubes containing heparin (15 units per ml of blood) and centrifuged immediately. Plasma was separated and kept frozen at −20° C. until assayed. Rat growth hormone (rGH) [^125I] levels were determined by means of a radioimmunoassay kit (Amersham). The standard in this kit has been calibrated against a reference standard preparation (NIH-RP2) obtained from the National Institute of Diabetes and Digestive and Kidney Diseases. All samples were measured in duplicate.

Opiate receptors [4] = experiment: NovaScreen nonspecific binding, Opiate receptors; settings: tested at 100 nM; FIG. 2
Description: NovaScreen (Hanover, Md.) performed an assessment for nonspecific binding to various G-protein coupled receptor families. Binding studies to Neurokinin, Opiate and Muscarinic receptors were based on a comparison between the native hormone Somatostatin, Ocreotide and PTR 3173.

[5] = tested on: human peripheral blood lymphocytes (PBL); experiment: Human PBL proliferation assay (mitogenicity); format: cell-based; settings: PBL proliferation assays
Description: PTR 3173 was furthermore found to be not mitogenic for human lymphocytes in human peripheral blood lymphocytes (PBL) proliferation assays.

[6] = tested on: CHO cells expressing human cloned SST-R5; experiment: In-vitro cell-growth inhibition; format: cell-based
Procedure: Pharmacological evaluation of growth inhibition was performed utilizing CHO cells expressing human cloned SST-R5.

[7] = tested on: somatostatin receptors (SSTR-1, 2, 3, 4 or 5); experiment: Somatostatin receptor subtype selectivity of binding; parameters: species or system human; settings: in words
Procedure: as §2, §1

Opiate receptors [8] = experiment: Guinea-Pig Ileum met-Enkephalin-evoked twitch contraction; settings: preliminary results
[9] = Initial safety testing in dogs; format: in vivo; settings: dose 10,000-fold higher then the efficacious dose for inhibiting Growth hormone release
Procedure: PTR 3173 was tested in various species for its initial safety properties. Under the European Pharmacopoeia requirements for safety testing, it was declared a safe drug candidate at this stage of development.

[10] = kidney or brush border membranes
[11] = Table 4, physiological selectivity

T2 sequence (P31391 whole entry): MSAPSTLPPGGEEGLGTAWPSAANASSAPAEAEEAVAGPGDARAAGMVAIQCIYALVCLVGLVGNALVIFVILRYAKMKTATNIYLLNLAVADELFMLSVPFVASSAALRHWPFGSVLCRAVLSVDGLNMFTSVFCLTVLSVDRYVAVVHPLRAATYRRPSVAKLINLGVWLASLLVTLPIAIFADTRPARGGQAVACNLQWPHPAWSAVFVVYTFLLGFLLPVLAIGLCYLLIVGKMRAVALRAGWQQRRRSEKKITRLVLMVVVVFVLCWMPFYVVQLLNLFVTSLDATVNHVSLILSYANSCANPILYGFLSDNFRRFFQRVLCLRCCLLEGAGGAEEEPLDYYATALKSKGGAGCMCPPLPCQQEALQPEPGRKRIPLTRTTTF
T1 sequence (P32745 whole entry): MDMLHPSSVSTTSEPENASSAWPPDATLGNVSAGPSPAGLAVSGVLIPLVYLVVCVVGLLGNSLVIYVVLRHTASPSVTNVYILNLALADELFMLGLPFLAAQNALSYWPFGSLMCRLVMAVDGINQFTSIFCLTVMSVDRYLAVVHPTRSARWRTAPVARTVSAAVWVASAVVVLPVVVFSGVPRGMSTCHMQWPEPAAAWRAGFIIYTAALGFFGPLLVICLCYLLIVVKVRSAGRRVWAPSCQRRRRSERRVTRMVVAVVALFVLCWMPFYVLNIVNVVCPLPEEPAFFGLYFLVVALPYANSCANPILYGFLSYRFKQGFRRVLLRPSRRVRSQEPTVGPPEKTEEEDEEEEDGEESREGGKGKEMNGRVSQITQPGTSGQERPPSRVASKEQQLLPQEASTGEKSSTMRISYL

**Q.** With `C[C@@H](O)[C@@H]1NC(=O)[C@H](CCCCN)NC(=O)[C@@H](Cc2c[nH]c3ccccc23)NC(=O)[C@H](Cc2c[nH]c3ccccc23)NC(=O)[C@H](Cc2ccccc2)NC(=O)CCCNC(=O)CCCN(CC(N)=O)C(=O)[C@H](Cc2ccccc2)NC1=O` [PTR 3173, GABA*-Phe-Trp-(D)Trp-Lys-Thr-Phe-Gly(C3)-X] as the compound, how does the “Percent of intact molecule after incubation in renal homogenate” value ([1]; Time 0 hrs, 37° C.) read?
**A.** Its value is 100%.

**Q.** What about the remaining at 1 h [1, 10] of the same compound?
**A.** Its remaining at 1 h is 100%.

**Q.** And the remaining at 3 h [1, 10]?
**A.** Its remaining at 3 h is 100%.

**Q.** And the remaining at 24 h [1, 10]?
**A.** The remaining at 24 h was 100%.

**Q.** And the inhibition at 10 pM (SSTR-3)?
**A.** The inhibition at 10 pM was 2%.

**Q.** And the inhibition at 0.0001 µM (SSTR-3)?
**A.** The inhibition at 0.0001 µM was 1%.

**Q.** And the inhibition at 0.001 µM (SSTR-3)?
**A.** The inhibition at 0.001 µM was 1%.

**Q.** What about the inhibition at 0.01 µM (SSTR-3) of the same compound?
**A.** Its inhibition at 0.01 µM is 4%.

**Q.** What about the inhibition at 0.1 µM (SSTR-3) of the same compound?
**A.** The inhibition at 0.1 µM was 50%.

**Q.** What about the inhibition at 1 µM (SSTR-3) of the same compound?
**A.** The inhibition at 1 µM was 89%.

**Q.** And the “effect on insulin release” value (insulin release; 100 micrograms per kilogram, D-glucose stimulation, FIG. 5a)?
**A.** Its value is “inactive on insulin”.

**Q.** And the “Insulin ID50” value (insulin release; [11])?
**A.** Its value is over 1000 µg/kg.

**Q.** What about the “effect on insulin release” value (insulin release; dose of up to 1 milligram per kilogram, FIG. 5b) of the same compound?
**A.** Its value is “no appreciable effect on insulin”.

**Q.** And the “effect on insulin (general statement)” value (insulin release; in words, no dose stated)?
**A.** Its value is “lacks the disadvantages of Octreotide such as inhibition of Insulin secretion; also recorded: no considerable effect on insulin”.

**Q.** What about the GH/Insulin (insulin release; ratio of ID50 values, Table 4) of the same compound?
**A.** Its GH/Insulin is >10,000.

**Q.** And the “metabolic bio-stability against degradation by enzymes” value [2]?
**A.** The value was “considerable metabolic bio-stability against degradation by enzymes”.

**Q.** And the inhibition at 1 µM (SSTR-4; 10^−6 M)?
**A.** Its inhibition at 1 µM is 5%.

**Q.** And the inhibition at 0.1 µM (SSTR-4; 10^−7 M)?
**A.** Its inhibition at 0.1 µM is 5%.

**Q.** And the inhibition at 0.01 µM (SSTR-4; 10^−8 M)?
**A.** Its inhibition at 0.01 µM is 0%.

**Q.** And the inhibition at 0.001 µM (SSTR-4; 10^−9 M)?
**A.** The inhibition at 0.001 µM was 0%.

**Q.** And the inhibition at 0.0001 µM (SSTR-4; 10^−10 M)?
**A.** The inhibition at 0.0001 µM was 0%.

**Q.** What about the inhibition at 10 pM (SSTR-4; 10^−11 M) of the same compound?
**A.** The inhibition at 10 pM was 0%.

**Q.** And the “effect on growth hormone release” value ([3]; 100 micrograms per kilogram, L-arginine stimulation, Nembutal anesthesia, FIG. 3)?
**A.** The value was “equipotent inhibitors of growth hormone release in comparison to Octreotide”.

**Q.** What about the “GH ID50” value [3, 11] of the same compound?
**A.** The value was 0.1 µg/kg.

**Q.** And the “effect on growth hormone (general statement)” value ([3]; in words, no dose stated)?
**A.** Its value is “significant inhibition with prolonged duration of action on the Growth Hormone-IGF-1 axis of a similar magnitude as the drug Octreotide; also recorded: potent inhibitor of growth hormone”.

**Q.** What about the “binding to Opiate receptors” value (Opiate receptors [4]) of the same compound?
**A.** Its value is “did not bind”.

**Q.** What about the “mitogenicity for human lymphocytes” value [5] of the same compound?
**A.** Its value is “not mitogenic”.

**Q.** What about the growth inhibition [6] of the same compound?
**A.** The growth inhibition was “significant growth inhibition; also recorded: considerably higher potency of growth inhibition compared to the native hormone and the drug Octreotide”.

**Q.** And the “somatostatin receptor subtype selectivity” value [7]?
**A.** Its value is “selective for receptors 2 and 5; also recorded: improved selectivity of binding to the SST receptor subtype SST-R2 and SST-R5”.

**Q.** What about the “somatostatin receptor subtype selectivity” value ([7]; listed as PTR-3173) of the same compound?
**A.** The value was “SST-R2+SST-R5”.

**Q.** And the “effect on met-Enkephalin-evoked twitch contraction” value (Opiate receptors [8])?
**A.** Its value is “did not affect met-Enkephalin-evoked twitch contraction”.

**Q.** And the toxicity signs [9]?
**A.** The toxicity signs was “No toxicity signs”.
